In patent US7410955B2, “Therapeutic use of agonist ligands specific to G2A receptor” (Biosynergen, Inc., priority 2002, dated 2008):

Key:
[1] = test system: myeloperoxidase (MPO) in pulmonary tissues; test: LPS-induced (intratracheal) acute lung injury model, lung MPO activity; assay type: in vivo, ICR mice
Description: The activity of myeloperoxidase (MPO), an indicator of neutrophils, in pulmonary tissues was determined according to the methods of Goldblum et al (J. Appl. physiol. 59: 1978, 1985) and Parey et al (J. Immunol. 160:1007, 1998). First, mice were sacrificed and pulmonary tissues were obtained therefrom. The tissues had been homogenized in potassium phosphate buffer, and centrifuged to obtain pellets. These pellets were sonicated in potassium phosphate buffer containing 0.5% hexadecyltrimethylammonium bromide (HTAB), and incubated at 60° C. for 120 min. After centrifugation, supernatants were obtained. 0.02 ml of supernatants was mixed with potassium phosphate buffer solution (0.18 ml) containing o-dianisidine dihydrochloride of 0.167 mg/ml and 0.0005% hydrogen peroxide. Accordingly, the absorbance of the mixture was determined at a wavelength of 460 nm.
Mice were intratracheally administered with LPS to cause direct acute lung injury, thereby inducing acute respiratory distress syndrome.
ICR mice (25-30 g in body weight; MJ Ltd.) were divided into five groups of 7 mice (Sham group, experimental groups-1, -2, -3 and a control group). Mice of each group were anesthetized with pentobarbital, their skins were dissected in a length of 1 cm to expose their bronchia. […]

E. coli (DH5a) = test: Bacteria-induced sepsis model; assay type: in vivo, ICR mice; conditions: 10 mg/kg subcutaneous, 2 and 14 hours after i.p. E. coli
Description: (§1) ICR mice (25-30 g in body weight; MJ Ltd.) were intraperitoneally injected with alive 10^8 cells/ml E. coli (DH5a) that were suspended in 0.5 ml of PBS (phosphate-buffered saline) to cause peritonitis, thereby inducing sepsis.
After the peritoneal cavity of mice had been exposed, it was washed with sterilized saline (2 ml). The resultant solution was diluted with HBSS (Sigma Chemical Co., USA) in a ratio of 1/1000, and then 10 μl of each diluted solution was spread on Trypticase Soy agar (BBL, Becton Dickinson Co., USA) plates. After overnight incubation at 37° C., colony forming unit (CFU) was measured.
14 ICR mice of bacteria-induced septicemia model according to Reference Example <1-1> a) were divided into two groups of 7 mice. 7 mice were administered with 1-stearoyl LPC (Sigma Chemical Co., USA) dissolved in 1% BSA (bovine serum albumin) solution containing no fatty acid in an amount of 10 mg/kg by subcutaneous injection, 2 and 14 hours after E. coli was intraperitoneally injected, respectively (experimental group). The remaining 7 mice were administered with 1% BSA solution containing no fatty acid of the same amount as above, instead of LPC, in the same manner (control group). […] Also, the number of intraperitoneal E. coli cells 24 hours after the intraperitoneal injection was measured in accordance with the method described in Reference Example 3.

neutrophils = test: Bactericidal activity of neutrophils from bacteria-induced sepsis model mice; assay type: cell-based; conditions: 30 μM 1-stearoyl LPC for 1 hour after E. coli ingestion, 1 hour killing time; vs PBS control
Description: as §1
The isolated neutrophils were adhered to the cover slip coated with poly-L-Lysine (0.01%) in a cell incubator maintained at 37° C., at a cell concentration of 10^6 cells/ml for 1 hour. Thereafter, E. coli was added thereto in a concentration of 10^6 cells/ml and cultured for 1 hour. E. coli cells that were not ingested by neutrophils were removed by washing the cover slip with PBS buffer. The cover slip was then treated with […] 1-stearoyl LPC, and further cultured for another 1 hour. In this stage, the cover slip of the control group was treated with PBS buffer, instead of LPC. Thereafter, after the exchange of a new RPMI-1640 medium, they were further cultured for 1 hour to give killing time. Then, the neutrophils were broken using Triton X-100 (0.05%), and accordingly E. coli cells were recovered. The recovered E. coli cells were spread onto a plate and cultured in an incubator maintained at 37° C. The number of E. coli cells that had grown on the medium was counted and subjected to statistical analysis. […]

With `CCCCCCCCCCCCCCCCCC(=O)OCC(O)COP(=O)([O-])OCC[N+](C)(C)C` (centres unmarked) [1-stearoyl LPC, 1-stearoyl (18:0) lysophosphatidylcholine] the “activity of MPO in pulmonary tissues” value ([1]; 20 mg/kg subcutaneous (experimental group-3), p<0.01) was “the most excellent effects”, the “activity of MPO in pulmonary tissues” value ([1]; 5, 10 and 20 mg/kg subcutaneous, 2 and 14 hours after intratracheal LPS, 24 hours after LPS, vs control group) was “suppressed in a concentration-dependent manner” and the “number of intraperitoneal E. coli cells” value (E. coli (DH5a); 24 hours after injection, P<0.01) was “remarkably decreased”. For the same molecule, the “death rate due to septicemia (survival rate over time)” value (E. coli (DH5a); P<0.05) was “significantly suppressed” and the “number of alive E. coli recovered from neutrophils” value (neutrophils) was “significantly decreased”.
